For series [1], the system named is Eubacterium limosum (LMG 28910). The conditions noted are these: LMG 28910, chicken, 10 µg/mL, pH 6. The method, then: Six strains were tested for their ability to convert berberine into berberine-demethylated metabolites. […] Strains were sub-cultured overnight in M2GSC medium pH 6. The next day, caecal content from a 3-week-old broiler chicken was sampled in anaerobic conditions and 1:1,000 diluted in M2GSC medium pH 6 containing 10 μg/mL berberine. Caecal mixtures were enriched with 1:100 diluted overnight cultures of single bacteria, or with M2GSC (control), and incubated in a 24-well plate, for 48 h. […] Samples were collected and processed as described before. Each bacterial strain was tested in triplicate at 37°C–40°C under anaerobic conditions.
The UPLC instrument consisted of an Acquity H-Class Quaternary Solvent Manager and an Acquity FTN Sample Manager (Waters, Berchem, Belgium). For chromatographic separation, an Acquity UPLC® HSS T3 column (1.8 µm, 100 mm × 2.1 mm i.d.) was used, protected by a precolumn of the same type (VanGuardTM, 5 mm × 2.1 mm i.d.), both from Waters. […] The column temperature was maintained at 25°C. The autosampler temperature was set at 10°C. The UPLC effluent was sent from 1.2 min to 9.5 min by use of a divert valve to a Xevo TQ-S® triple quadrupole mass spectrometer from Water, equipped with an ESI ion source operating in the positive ionization mode from. The UPLC-MS/MS analysis was run under control of MassLynx software (v4.1), which was used for subsequent data processing as well. For the injection of 1/5 diluted intestinal content samples (see section Preparation of intestinal content samples (ileum and caecum)), the divert valve was used in addition from 7.1 min to 8.4 min to deviate the high amount of berberine and associated IS berberine-d6 eluting in that time window from the UPLC column directly to the waste, rather than to the MS detector to avoid oversaturation of the instrument, influencing subsequent sample extract injections at well. Operating conditions for the ESI source used in the positive ionization mode were optimized by direct infusion of all individual components in combination with the mobile phase at 50% A/50% B delivered at a flow rate of 0.3 mL/min. The following tune parameters were used for detection of all components: capillary voltage, 3 kV, cone voltage, 10 V, source offset, 50 V, source temperature, 150°C, desolvation temperature, 500°C, desolvation gas flow, 800 L/h, cone gas flow, 150 L/h, collision gas flow, 0.2 mL/min, ion energy 1 and 2, 0.5, LM 1 and LM 2 resolution, 3, HM 1 and HM 2 resolution, 15. Components were detected in MS/MS mode using component specific MRM (Multiple Reaction Monitoring) transitions (Supplementary Table S1). Since a commercial standard of thalifendine was not available, MS/MS detection parameters and calibration of berberrubine were used for the detection and quantification of thalifendine, which is a reasonable approach, since both compounds are isomers. No commercial reference standards were available for phase II metabolites, therefore “calculated” MRM transitions were defined as follows: [M + -Gluc] > M+ for glucuronide forms and [M + -SO3] > M+ for sulfate forms, where the loss of glucuronic acid or sulfate corresponded to a mass shift of 176 Da or 80 Da respectively. Phase II metabolites were quantified relatively using the berberine calibration curve ([Wang et al., 2017a]; [Kwon et al., 2020]).

Series [2] is described as follows: UPLC-MS/MS quantification of berberine and metabolites in ileal and caecal content. In kind it is in vivo, Ross 308 broiler chickens. The following applies: 21 days.

Structures are written as SMILES.

For `COc1cc2c(cc1O)CC[n+]1cc3c(OC)c(OC)ccc3cc1-2` [Jatrorrhizine, Jatrorrhizine chloride], in series [1], the “Log2(fold change) of metabolite response at 48 h, culture with bacteria over control (berberine-medium + microbiota)” value worked out at 0.11. The results for the “Ratio caecum / ileum (concentration)” value in series [2] (0.1 g berberine/kg feed), in series [2] (0.5 g berberine/kg feed) and in series [2] (1 g berberine/kg feed) were 0.31, 0.49 and 0.72, respectively.

For `COc1ccc2cc3[n+](cc2c1O)CCc1cc2c(cc1-3)OCO2` [Berberrubine, berberrubine chloride], in series [1], the “Log2(fold change) of metabolite response at 48 h, culture with bacteria over control (berberine-medium + microbiota)” value is -0.40. The “Ratio caecum / ileum (concentration)” value in series [2] (0.1 g berberine/kg feed) worked out at 21.43; in series [2] (0.5 g berberine/kg feed), 29.98; in series [2] (1 g berberine/kg feed), 63.80.

Regarding `COc1ccc2cc3[n+](cc2c1OC)CCc1cc2c(cc1-3)OCO2` [Berberine, Berberine chloride], the “Ratio caecum / ileum (concentration)” value in series [2] (0.1 g berberine/kg feed) worked out at 0.07; in series [2] (0.5 g berberine/kg feed) it was 0.14; in series [2] (1 g berberine/kg feed), 0.22.

The values are drawn from paper PMC10733463, “Berberine-microbiota interplay: orchestrating gut health through modulation of the gut microbiota and metabolic transformation into bioactive metabolites” (Frontiers in Pharmacology, 2023).
